Results: patent publication EP3319959B1, “HETERO-HALO INHIBITORS OF HISTONE DEACETYLASE” (Alkermes, Inc., priority 2015, dated 2017)

Legend:
recombinant human HDACs = assay: HDAC enzymatic assay (LabChip capillary electrophoresis); format: biochemical; settings: 5 nM HDAC enzyme, 1 uM substrate, 5 hours pre-incubation, 17 hours reaction at 25°C; isoform not given
Experimental: All recombinant human HDACs were purchased from BPS Bioscience. The substrate, FAM-TSRHK(AC)KL-CONH, was synthesized at NanoSyn. Final assay reactions contained 100 mM HEPES (pH 7.5), 50 mM KCl, 0.1% BSA, 0.01% Triton X-100, 1% DMSO, 1 uM substrate and 5 nM HDAC enzyme. Enzyme and compounds were pre-incubated at 25°C for 5 hours and reactions were initiated by addition of substrate. 10 uL reactions were incubated for 17 hours at 25°C and terminated by the addition of 40 uL of buffer containing 100 mM HEPES (pH 7.5), 0.1% BSA, 0.01% Triton X-100 and 0.05% SDS. Substrate and product peptides present in each sample were separated electrophoretically using the LabChip 3000 capillary electrophoresis instrument. Change in the relative fluorescence intensity of the substrate and product peaks reflects enzyme activity. Reaction progress was determined as the product to sum ratio (PSR): P/(S+P), where P is the peak height of the product peptide and S is the peak height of the substrate peptide. Reactions were performed in duplicate at 12 concentrations, (3X serial dilutions starting at 30 uM). IC50 values were calculated using a 4 Parameter Logistic Model.

SH-SY5Y cells = assay: Cell assay in SH-SY5Y cells with HDAC-Glo 2 reagent; format: cell-based; settings: Homo sapiens, 5 h, five hours at 37°C, CI-994 at 100 uM defined as 100% inhibition
Experimental: SH-SY5Y cells (Sigma) were cultured in Eagle's Modified Essential Medium supplemented with 10% fetal bovine serum and pen/strep. Twenty-four hours prior to compound dosing 20 uL of cells were plated in white 384 well plates at a density of 1,500 cells/well. Compounds were serially diluted in neat DMSO and then diluted 1:100 v/v into media without FBS and mixed. Media was removed from the plated cells and the diluted compounds in serum free media (1% v/v final DMSO) were added and incubated at 37°C for five hours. Ten uL of HDAC-Glo 2 reagent with 0.1% Triton X-100 was then added, the plate was mixed and allowed to develop at room temperature for 100 minutes. Plates were then read with a Spectramax LMax luminometer employing a 0.4s integration time. Dose response curves were constructed with normalized data where CI-994 at 100 uM was defined as 100% inhibition and DMSO alone as 0% inhibition. Table 5. IC50 and EC50 Values for Exemplary Compounds Useful in the Invention

IC50 (recombinant human HDACs) | EC50 (SH-SY5Y cells) | Compound
100 to 500 nM | 500 to 5000 nM | Nc1ccc(-c2ccc(F)cc2)nc1NC(=O)N1Cc2ccc(CO)cc2C1 [Compound 366]
100 to 500 nM | 100 to 500 nM | Nc1ccc(-c2ccc(F)cc2)nc1NC(=O)N1Cc2cc(CN3CCCC3)cnc2C1 [Compound 155]
100 to 500 nM | 100 to 500 nM | Cn1cc2c(n1)CN(C(=O)Nc1nc(-c3ccc(F)cc3)ccc1N)C2 [Compound 257]
100 to 500 nM | 100 to 500 nM | CN1CCN(c2ccc3c(n2)CN(C(=O)Nc2nc(-c4ccc(F)cc4)ccc2N)C3)CC1 [Compound 391]
> 5000 nM | > 5000 nM | Nc1ccc(-c2ccc(F)cc2)nc1NC(=O)N1C[C@@H]2[C@H](C1)[C@H]2NC1COC1 [Compound 267]
100 to 500 nM | 500 to 5000 nM | CN1CCN(Cc2ccc3c(c2)CN(C(=O)Nc2nc(-c4ccc(F)cc4)ccc2N)C3)CC1 [Compound 367]
100 to 500 nM | 500 to 5000 nM | Nc1ccc(-c2ccc(F)cc2)nc1NC(=O)N1Cc2ccncc2C1 [Compound 373]
100 to 500 nM | 500 to 5000 nM | CN(C)Cc1ccc(C2CN(C(=O)Nc3nc(-c4ccc(F)cc4)ccc3N)C2)cc1 [Compound 146]
500 to 5000 nM | 500 to 5000 nM | Nc1ccc(-c2ccc(F)cc2)nc1NC(=O)N1Cc2cc(CN3CC(F)(F)C3)cnc2C1 [Compound 271]
100 to 500 nM | 500 to 5000 nM | CN1CCN(c2cnc3c(c2)CN(C(=O)Nc2nc(-c4ccc(F)cc4)ccc2N)C3)CC1 [Compound 159]
100 to 500 nM | 100 to 500 nM | CN(C)Cc1cc2c(cn1)CN(C(=O)Nc1nc(-c3ccc(F)cc3)ccc1N)C2 [Compound 162]
100 to 500 nM | 100 to 500 nM | CN(C)Cc1cnc2c(c1)CN(C(=O)Nc1nc(-c3ccc(F)cc3)ccc1N)C2 [Compound 154]
> 5000 nM | > 5000 nM | Nc1ccc(-c2ccc(F)cc2)nc1NC(=O)N1C[C@@H]2[C@@H](CN3CCC3)[C@@H]2C1 [Compound 270]
100 to 500 nM | 100 to 500 nM | Nc1ccc(-c2ccc(F)cc2)nc1NC(=O)N1Cc2cccnc2C1 [Compound 397]
500 to 5000 nM | 500 to 5000 nM | CN1CCC(N2C[C@@H]3[C@H](C2)[C@H]3C(=O)Nc2nc(-c3ccc(F)cc3)ccc2N)CC1 (stereo in doubt) [Compound 263]
100 to 500 nM | 100 to 500 nM | Nc1ccc(-c2ccc(F)cc2)nc1NC(=O)N1Cc2cc(CN3CCC3)cnc2C1 [Compound 272]
100 to 500 nM | 100 to 500 nM | CN1CCC(c2cnc3c(c2)CN(C(=O)Nc2nc(-c4cccs4)ccc2N)C3)CC1 [Compound 250]
100 to 500 nM | 100 to 500 nM | Nc1ccc(-c2cccs2)nc1NC(=O)N1Cc2cc(CN3CCCC3)cnc2C1 [Compound 144]
100 to 500 nM | 100 to 500 nM | CN1CCC(c2cnc3c(c2)CN(C(=O)Nc2nc(-c4ccc(F)cc4)ccc2N)C3)CC1 [Compound 252]
100 to 500 nM | 100 to 500 nM | CN1CCc2sc(C(=O)Nc3nc(-c4ccco4)ccc3N)nc2C1 [Compound 163]
500 to 5000 nM | 500 to 5000 nM | COC[C@@H]1[C@H]2CN(C(=O)Nc3nc(-c4ccc(F)cc4)ccc3N)C[C@@H]12 [Compound 276]

Compound | IC50 (recombinant human HDACs) | EC50 (SH-SY5Y cells)
CN1CC=C(c2cnc3c(c2)CN(C(=O)Nc2nc(-c4cccs4)ccc2N)C3)CC1 [Compound 251] | 100 to 500 nM | 100 to 500 nM
CN1CC=C(c2cc3c(cn2)CN(C(=O)Nc2nc(-c4ccc(F)cc4)ccc2N)C3)CC1 [Compound 148] | 100 to 500 nM | 500 to 5000 nM
COCc1cc2c(cn1)CN(C(=O)Nc1nc(-c3ccc(F)cc3)ccc1N)C2 [Compound 243] | 100 to 500 nM | 500 to 5000 nM
Nc1ccc(-c2ccc(F)cc2)nc1NC(=O)N1Cc2cnc(CN3CC(F)(F)C3)cc2C1 [Compound 266] | 500 to 5000 nM | 500 to 5000 nM
CN1CC=C(c2cnc3c(c2)CN(C(=O)Nc2nc(-c4ccc(F)cc4)ccc2N)C3)CC1 [Compound 253] | 100 to 500 nM | 100 to 500 nM
